# Article PMC7756341, “Liposomal FRET Assay Identifies Potent Drug‐Like Inhibitors of the Ceramide Transport Protein (CERT)” (Chemistry (Weinheim an Der Bergstrasse, Germany), 2020)
# Target: T1, CERT (Homo sapiens, UniProt Q9Y5P4)
# T1 construct: made in house; host or cells: E. coli BL21 (DE3), pET-28a(+)
# T1 sequence (Q9Y5P4 1-598 isoform Q9Y5P4-2): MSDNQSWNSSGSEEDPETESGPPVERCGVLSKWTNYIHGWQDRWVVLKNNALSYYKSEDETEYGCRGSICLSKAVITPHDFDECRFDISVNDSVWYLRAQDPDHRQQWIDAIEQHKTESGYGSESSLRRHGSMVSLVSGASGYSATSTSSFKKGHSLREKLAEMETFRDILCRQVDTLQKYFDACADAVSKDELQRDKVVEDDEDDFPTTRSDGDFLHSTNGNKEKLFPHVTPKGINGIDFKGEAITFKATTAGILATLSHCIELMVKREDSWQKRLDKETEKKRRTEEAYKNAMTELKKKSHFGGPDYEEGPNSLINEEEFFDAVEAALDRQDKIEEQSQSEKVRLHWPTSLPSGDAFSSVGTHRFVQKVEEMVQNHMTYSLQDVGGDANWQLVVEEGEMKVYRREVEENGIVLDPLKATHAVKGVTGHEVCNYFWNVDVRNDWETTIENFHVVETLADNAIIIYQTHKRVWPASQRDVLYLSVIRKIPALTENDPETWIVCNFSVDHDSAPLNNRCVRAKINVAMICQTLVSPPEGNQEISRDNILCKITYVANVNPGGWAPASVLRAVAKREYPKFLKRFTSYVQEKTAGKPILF
# Test: NR-ceramide fluorescence competition assay
# Type: binding
# Conditions: 1 μM Nile red ceramide
# Excerpt: Having the identified hits from CERT-transfer assay, we were interested in further understanding the relationship between the CERT-transfer inhibitory activity and CERT-binding affinity. With this goal in mind, we have developed a homogenous competitive assay based on the binding of fluorescently-labeled ceramide to CERT-protein (Fig S6). It’s well known that Nile Red is […]
# than in hydrophilic one. Based on this knowledge, we have designed a fluorescently-labeled probe in which the Nile Red-tag was incorporated into the ceramide fatty acid moiety. The NR-ceramide […]
# excellent signal-to-noise ratio (28-fold, Fig S7.A). Equilibration takes ~1h of incubation at 30°C.
# Furthermore, this assay is a simple mix-and read format and uses only low amounts of fluorophore (1µM) and CERT-protein (12.5µg/assay).
# The assay was performed in non-binding black-bottom 96-well microplate (Greiner Bio-One). To each well was added 1µL HPA12 (final concentration 2.5µM) or DMSO, followed by 98 µL of the CERT aliquot (12.5µg/well). After the mixture was incubated for 40 min at 30°C, 1µL NR-ceramide (final concentration 1µM) was added. Controls were triplicates of 10mM Tris.HCl buffer (pH 7.4, 250 mM sucrose) with 2µL DMSO, CERT aliquot (12.5µg/well) with 2µL DMSO, and 1µL NR-ceramide (final concentration 1µM) in 10mM Tris.HCl buffer (pH 7.4, 250 mM sucrose) with 1µL DMSO. The plate was then sealed with transparent Thermowell seal tape and placed in the microplate reader (LABTECH) at 30°C with shaking. The fluorescence was measured from the top over 80min (number of cycles 35, delay 70 sec) with excitation filter 540 nm and emission filter 640 nm. The competitive CERT-binding activity was calculated using the formula: Ix = I(À2-Y)/I0(À1-X), where À1 is the average of the florescence of the control of NR-ceramide in Tris.HCl buffer, X is the average of the fluorescence of the buffer alone, À2 is the fluorescence average of the assay mixture, Y is the fluorescence average of the CERT aliquot with inhibitor/DMSO (Fig […]
# It is however lower than the differentiation in the transfer assay (Fig S8B).
# 3.2 High throughput screening for CERT-activity and Data analysis
# In order to validate the performance of developed assay in high-throughput screening format, the hits from ‘confirmed-hit group’ (45 hits) were screened for their competitive CERT-binding activity. The assay was performed as mentioned in the previous sub-section 3.1. Briefly, 1µL tested compound (final concentration 1µM, 2.5µM, 5µM, 10µM) or DMSO for control, and 98 µL CERT stock solution were sequentially added into a non-binding 96-well microplate. The plate was sealed and incubated at 30°C for 40 min, before 1µL NR-ceramide (final concentration 1µM) was added.
# Controls per plate were triplicates of 10mM Tris.HCl buffer (pH 7.4, 250 mM sucrose) with 2µL DMSO, CERT aliquot (12.5µg/well) with 2µL DMSO, 1µL NR-ceramide (final concentration 1µM) in 10mM Tris.HCl buffer (pH 7.4, 250 mM sucrose), and HPA12 as a reference inhibitor (final concentration of 1µM, and 2.5µM, 5µM). The plate was sealed with transparent Thermowell seal tape and the assay was allowed to proceed as described above using excitation filter 540 nm and emission filter 640 nm. The competitive CERT-binding activity was calculated using the formula: Ix = I(À2-Y)/I0(À1-X), where À1 is the average of the florescence of the control 1µL NR-ceramide in Tris.HCl buffer, X is the average of the fluorescence of the buffer alone, À2 is the average of the fluorescence of assay mixture treated with tested compound or DMSO, Y is the average of the fluorescence of CERT aliquot with inhibitor/DMSO.
smiles,measurement,value
"CCCCCCCCCCCC(=O)NC(CO)CC(O)c1ccccc1 (single isomer, unassigned) [R,R diastereomer of HPA‐12, N-(3Hydroxy-1-hydroxymethyl-3-phenylpropyl)-dodecamide]",activity in the NR ceramide competition assay,much less pronounced
